Results from patent US5728686A, “Alkylxanthine phosphonates and alkylxanthine phosphine oxides and their use as pharmaceuticals” (Hoechst Aktiengesellschaft, priority 1996, dated 1998).
Converted amounts (≈) assume the structure as drawn.

Tests used:
[1] = test system: isolated guinea pig trachea, agonist PGF2α; experiment: antagonist of PGF2α-induced contraction of isolated guinea pig trachea; assay type: cell-based; conditions: Cavia porcellus, 37° C., read-out: Anticontractile action (trachea), PGF2α: concentration range for dilatation corresponding to ED50 range
From the text: (§1) 3. Activity as antagonist of the contraction of isolated guinea pig trachea
(§2) The compounds of the formula I are used as antagonists of the contraction of isolated guinea pig trachea. The agonists employed were PGF2α (Upjohn, Germany), calcium ionophore A23187 (Calbiochem, Bad Soden, Germany), and substance P (American Peptide Comp., USA):
Inhibition of contractions which are induced by this cyclooxygenase product is only possible by competitive antagonism at the receptor or of the subsequent signal pathway.
(§3) Preparation of the organ sections and experimental procedure:
(§4) The guinea pig is sacrificed by means of terminal laughing gas anaesthesia. The trachea is exposed along its entire length and cut into 15 individual cartilage rings. 5 rings in each case are tied together to give a chain and fixed in the organ bath under a preload of 3 g. After an equilibration time of 45 minutes, a contraction is produced using the agonist. The antagonist (test preparation) is added cumulatively on the plateau of the maximum. Evaluation is carried out in % force change relative to the contraction maximum. The experimental procedure is carried out at 37° C.; the physiological nutrient solution used is a modified Krebs-Henseleit solution through which is bubbled 95% by volume of O2, 5% by volume of CO2.
(§5) Experimental animals: albino guinea pigs (Hattersheim Animal Breeding Institute, Kastengrund, Germany), weight: 200 to 300 g, sex male or female.
(§6) Vehicle: double-distilled water, ethanol or isopropanol; administration: into the organ bath number of administration: cumulative, in SP individual doses
(§7) All numerical values are indicated in the unit μg/ml and relate to the concentration range of the tested compound of the formula I according to the invention (see example numbers in Table 1) which is necessary in order to cause a dilatation which corresponds to the ED50 range.

[2] = test system: isolated guinea pig trachea, agonist calcium ionophore A23187; experiment: antagonist of calcium ionophore A23187-induced contraction of isolated guinea pig trachea; assay type: cell-based; conditions: Cavia porcellus, 37° C., read-out: Anticontractile action (trachea), Ca ionophore: concentration range for dilatation corresponding to ED50 range
From the text: as §1, §2
b) Calcium ionophore A23187 (Calbiochem, Bad Soden) acts by increased uptake of calcium ions, and an activation of all calcium-dependent signal cascades in the cell. Lipoxygenase inhibitors, in particular, and generally antiinflammatory substances show effects in this model.
as §3, §4, §5, §6, §7

[3] = test system: isolated guinea pig lung strips, Platelet activating factor (PAF); experiment: antagonist of PAF-induced contraction of isolated guinea pig lung strips; assay type: cell-based; conditions: Cavia porcellus, read-out: Anticontractile action (lung), PAF: concentration range corresponding to the IC50 value
From the text: (§8) 4. Activity as an antagonist of the contraction of isolated guinea pig lung strips
(§9) The test carried out is based on the same principle as the test indicated in the pharmacological test 3; however, lung strips are used here.
as §3
(§10) The guinea pig is sacrificed under laughing gas anaesthesia. The entire pulmonary tract is exposed starting from the trachea. The lobes of the lung are cut in a circular fashion such that 3 mm wide strips are formed. The strips of the upper lobes are divided in order to obtain a total of six approximately equal size strips. The strips are suspended in the organ baths under a preload of 4 g. The nutrient solutions used are modified Krebs Henseleit solutions. When using "Platelet activating factor" (PAF) as an […], the composition of this solution corresponds to that for the agonist SP in "Test 3"; for the agonist LTD4 a Krebs Henseleit solution as in the case of the agonist KCl (Test 3) is used. 95% by volume O2, 5% by volume CO2 is used for bubbling through the bath; the bath temperature is 37° C. The experimental procedure is carried out in a therapeutically cumulative methodology, using the dosage graduations 1, 3, 6 and 10 μg/ml.
(§11) The experimental animals, organ bath, vehicles and manner of administration correspond to that stated in pharmacological test 3.
(§12) All numerical values are indicated in the unit μg/ml and relate to the concentration range of tested compound of the formula I (see example numbers in Table 1) which is necessary in order to cause a contraction which corresponds to the IC50 value.

[4] = test system: Endotoxin (LPS) from Salmonella abortus equi; experiment: effect on endotoxin fatality (LPS-induced septic shock); assay type: in vivo, female NMRI mice; conditions: 25 mg/kg i.p. at the same time as LPS 60 mg/kg i.p.; 72 hours; vs placebo control
Experimental: 2. Test for effect on endotoxin fatality
Individual injections of lipopolysaccharide (LPS), from gram-negative bacteria, lead via a series of various symptoms to septic shock, which usually turns out to be fatal. Endotoxin (LPS) from Salmonella abortus equi in a dose of 60 mg/kg i.p. leads to shock and to death with at most 72 h p.a. (the dose of 60 mg/kg corresponds to approximately 1.20 mg of LPS/animal).
The experimental animals used are female NMRI mice from the Hoechst AG/Hattersheim animal breeding unit having a body weight of 22 to 24 g.
The test substances administered intraperitoneally (i.p.) in an administration volume of 10 ml/kg at the same time as the LPS. The number of surviving animals after 72 hours' LPS administration is indicated in comparison to a placebo control. The number of tested animals per group is 5; dose 25 mg/kg.

[5] = test system: muscle group (gastrocnemius, plantaris and soleus) of the immobilized right rear extremity; experiment: rat muscle function test: direct electrical stimulation of muscle group after 3 weeks' immobilization; assay type: in vivo, male Wistar rats; conditions: oral, 1x per day for 3 weeks, as a rule 25 mg/kg, ≤-12% classified as active; for Force (force under the contraction curve, right/left difference): isometric stimulation, control difference approx. 25%; for Work (performed work, right/left difference): isotonic stimulation, control approx. -25%
From the text: (§13) 1. Activity in the rat muscle function test
(§14) Male Wistar rats (body weight about 300 g) were kept under standard conditions with feed and water ad libitum. The right rear extremity was immobilized by fitting a kind of "shoe" to the animals under short-term anaesthesia. Two ergonomically fitted halves of the "shoe" were cast from a liquid plastic material which is also used for the production of dental prostheses, these were put onto the animal under brief anaesthesia and joined with the aid of a wire. The material is light but hard, so that the animals cannot gnaw the material, and the "shoe" can be opened at any time to examine the condition of the immobilized extremity. The two halves were moreover padded out with chamois leather in order to avoid compressions and possible injuries due to rubbing. The system also has the advantage that the angle of immobilization is standardized in all animals; this would not be possible with a plaster cast. The chosen angle allows the animals to take up a normal sitting position despite the "shoe" and also to carry the body weight using this extremity. Only complete stretching or bending of the leg is impossible.
(§15) After 3 weeks' immobilization of the right rear extremity and simultaneous oral administration of test preparations (1× per day using a stomach tube; as a rule 25 mg/kg of body weight, in carboxymethylcellulose, the animals were weighed and anaesthetized with pentobarbital (35 mg/kg i.p.). Functional parameters were measured during direct electrical stimulation of a muscle group (gastrocnemius, plantaris and soleus). This muscle group, merely called "muscle" in the following, was exposed at the ankle tendon and tied to a force transducer via the tendon.
To determine the contractile force, the muscles were stimulated isometrically, i.e. a preload of 0.5N was applied and the muscle was stimulated by means of a series of electrical pulses, which led to a maximum contraction, every 0.7 sec for 80 msec for a period of 15 min. […] The area under this contraction curve was evaluated and the difference in percent between the right atrophic and left normal muscle compared (force under the contraction curve as difference in percent (Δ%)). The difference in the control group is approximately 25%.
An isotonic muscle stimulation was used to determine the performed work of the muscle over time. In this type of measurement, the shortening of the muscle during contraction is used as a basis. To this end, a preload which corresponds to the body weight was applied to the muscles. A series of stimulation pulses (80 msec) were triggered every 3 sec and the muscle was stimulated for 15 min. The data (contraction force and distance travelled) were converted to the work performed in the unit J using an automated system. The difference in the work performed between the immobilized atrophic and the normal muscle in the control animals was approximately -25%.
Values which are positive indicate that the functional parameters of the immobilized muscle were better than those of the contralateral normal muscle.

[6] = test system: isolated guinea pig trachea, agonist substance P; experiment: antagonist of substance P-induced contraction of isolated guinea pig trachea; assay type: cell-based; conditions: Cavia porcellus, individual doses, 37° C., read-out: Anticontractile action (trachea), SP antagonism: concentration range for dilatation corresponding to ED50 range
From the text: as §1, §2
The antagonism is possible on the one hand due to specific receptor antagonists, and on the other hand also due to inhibition of the subsequent signal pathway. Preparations which directly or indirectly increase the intracellular concentration of cyclic nucleotides in particular show spasmolytic properties here.
as §3, §4, §5, §6, §7

phosphodiesterase III = experiment: inhibition of phosphodiesterase III activity; assay type: biochemical; conditions: at 100 μM
Experimental: 5. Inhibition of phosphodiesterase III activity
The test is carried out using phosphodiesterase from Boehringer Mannheim (Mannheim, Germany), Order No. 108 243 according to the method of T. SAEKI, I. SAITO, Biochem. Pharm. 46, No. 5, […], pages 833-839.
All numerical values are indicated in % inhibition of the enzyme activity at 100 μM of the corresponding compound of the formula I.

[7] = test system: isolated guinea pig lung strips, leukotriene D4 (LTD4); experiment: antagonist of LTD4-induced contraction of isolated guinea pig lung strips; assay type: cell-based; conditions: Cavia porcellus, read-out: Anticontractile action (lung), LTD4: concentration range corresponding to the IC50 value
From the text: as §8, §9, §3, §10, §11, §12

soleus muscle = experiment: rat muscle function test: muscle weight (atrophy of immobilized extremity); assay type: in vivo, male Wistar rats; conditions: oral, 1x per day for 3 weeks, as a rule 25 mg/kg, difference ≤25% classified as an effect
From the text: as §13, §14
In spite of this, a significant decrease in the skeletal muscle mass (atrophy) of the immobilized extremity occurred, to be precise up to -35% in comparison with the contralateral nonimmobilized rear extremity. As the soleus muscle was the most severely affected, the changes in muscle weight after administration of preparation shown in Table 1 relate to this muscle. A difference of ≤25% between the right immobilized and left non-immobilized rear extremity was classified as an effect.
as §15

| SMILES | EC50 [1] [µg/mL] | EC50 [2] [µg/mL] | IC50 [3] [µg/mL] | Inhibition of mortality [4] [%] | Force (force under the contraction curve, right/left difference) [5] | Work (performed work, right/left difference) [5] | EC50 [6] [µg/mL] | PDE III Inhibition (phosphodiesterase III) [%] | IC50 [7] [µg/mL] | Muscle weight (right/left difference) (soleus muscle) |
| --- | --- | --- | --- | --- | --- | --- | --- | --- | --- | --- |
| CCCn1cnc2c1c(=O)n(CCCCP(=O)(OCC)OCC)c(=O)n2CC [Example 38, Diethyl [4-(3-ethyl-7-propylxanthin-1-yl)butyl]phosphonate] | > 10 | 10 (≈ 24.1 µM) | 1 to 3 (≈ 2.41 to 7.24 µM) | 60 | -10 Δ % | -3 Δ % | 10 to 30 (≈ 24.1 to 72.4 µM) | – | – | – |
| CCOP(=O)(CCCCn1c(=O)c2c(ncn2Cc2ccccc2)n(C)c1=O)OCC [Example 23, Diethyl [4-(7-benzyl-3-methylxanthin-1-yl)butyl]phosphonate] | > 10 | > 10 | 1 to 3 (≈ 2.23 to 6.69 µM) | – | – | – | 10 to 30 (≈ 22.3 to 66.9 µM) | 65 | 1 to 3 (≈ 2.23 to 6.69 µM) | – |
| CCOP(=O)(CCCCn1cnc2c1c(=O)n(CC)c(=O)n2C)OCC [Example 4, Diethyl [4-(1-ethyl-3-methylxanthin-7-yl)butyl]phosphonate] | > 10 | > 10 | 1 to 3 (≈ 2.59 to 7.76 µM) | – | – | – | 10 to 30 (≈ 25.9 to 77.6 µM) | – | – | – |
| CCCn1cnc2c1c(=O)n(CCCP(=O)(OCC)OCC)c(=O)n2C1CC1 [Example 39] | – | – | – | 100 | – | – | – | 65 | 3 to 6 (≈ 7.27 to 14.5 µM) | – |
| CCOP(=O)(CCCn1c(=O)c2c(ncn2CCOC)n(C)c1=O)OCC [Example 35, Diethyl [3-(7-methoxyethyl-3-methylxanthin-1-yl)propyl]phosphonate] | – | > 10 | 3 to 6 (≈ 7.46 to 14.9 µM) | – | – | – | 30 to 60 (≈ 74.6 to 149 µM) | – | – | – |
| CCCCn1cnc2c1c(=O)n(CCCP(=O)(OCC)OCC)c(=O)n2CCCC [Example 40, Diethyl [3-(3,7-dibutylxanthin-1-yl)propyl]phosphonate] | – | – | – | 100 | – | – | – | – | – | – |
| CCOP(=O)(CCCn1c(=O)c2c(ncn2CC)n(C)c1=O)OCC [Example 34, Diethyl [3-(7-ethyl-3-methylxanthin-1-yl)propyl]phosphonate] | – | – | – | 60 | -5 Δ % | -11 Δ % | – | 82 | – | – |
| CCOP(=O)(CCCCn1c(=O)c2[nH]cnc2n(C)c1=O)OCC [Example 24, Diethyl [4-(3-methylxanthin-1-yl)-butyl]phosphonate] | > 10 | – | – | 100 | +6 Δ % | -5 Δ % | 30 to 60 (≈ 83.7 to 167 µM) | – | – | -20 Δ % |
| CCOP(=O)(CCCCn1c(=O)c2c(ncn2CC)n(C)c1=O)OCC [Example 30, Diethyl [4-(7-ethyl-3-methylxanthin-1-yl)butyl]phosphonate] | > 10 | 10 (≈ 25.9 µM) | 3 to 6 (≈ 7.76 to 15.5 µM) | – | +2 Δ % | +5 Δ % | 10 to 30 (≈ 25.9 to 77.6 µM) | – | 6 to 10 (≈ 15.5 to 25.9 µM) | 0 Δ % |
| CCCn1cnc2c1c(=O)n(CCCCCP(=O)(OCC)OCC)c(=O)n2C [Example 17, Diethyl [5-(3-methyl-7-propylxanthin-1-yl)-pentyl]phosphonate] | – | – | 1 to 3 (≈ 2.41 to 7.24 µM) | – | +2 Δ % | -10 Δ % | 30 to 60 (≈ 72.4 to 145 µM) | 77 | 1 to 3 (≈ 2.41 to 7.24 µM) | 0 Δ % |
